Experiments:
Assay type in all cases: cell-based
[1] = tested on: p-p70 S6 Kinase (Thr389) in MCF-7 cells; experiment: AlphaLISA Ultra pS6K1 assay; conditions: Homo sapiens, 1.5 h; MCF7 cells, 90 min
Procedure: Example 55: AlphaLISA Ultra pS6K1 Assay
(§1) Assay Protocol: • 1. Seed MCF-7 cells in Corning 3701 plate and incubate for 20˜24 hour. 12,000˜16,000 cells will be seeded in 36 μL medium per well. • 2. Change the culture medium with fresh medium and incubate for another 2 hours. • 3. Add 12 μL (4×) compounds into the cell plate by HAMILTON. Final DMSO concentration is 0.5%. Incubate for 90 minutes. • 4. Aspirate 38 μL by HAMILTON, 10 μL rest per well. • 5. Add 10 μL 2× lysis buffer using HAMILTON; total volume in wells is 20 μL. Allow cells to shake for 30 min. Cover plate by plastic foil and store plate at −80° C. up to analysis. • 6. Thaw cell lysate at RT and transfer 10 μL lysate to assay plate (Optiplate-384). • 7. Add 5 μL acceptor beads into assay plate and incubation for 2 hours • 8. Add 5 μL donor beads and incubation for 2 hours • 9. Count the plate by EnSpire Multimode Plate Reader

[2] = tested on: p-Akt 1/2/3 (Ser473) in MCF-7 cells; experiment: AlphaLISA Ultra pAKT assay; conditions: Homo sapiens, 1.5 h; MCF7 cells, 90 min
Procedure: Example 56: AlphaLISA Ultra pAKT Assay
as §1, with “1.” for “1. Seed”, “16,000˜20,000” for “12,000˜16,000”, “90 minutes.” for “2 hours.”, “Incubate for 90 minutes. • 4.” left out

[3] = tested on: mTORC1 over mTORC2; experiment: mTORC1 over mTORC2 selectivity by comparing pS6K1 and pAKT IC50; conditions: by comparing pS6K1 and pAKT IC50, 90 min
Procedure: as §1, with “Reader […]” for “Reader”
Compounds that are not selective by comparing pS6K1 and pAKT IC50 by kinase assays are indicated by “NO” in the “mTORC1 selective @ 90 min” column of Table 4. […] Compounds that are not selective at the 24 hrs mark are indicated by “NO” in the “mTORC1 selective @ 24 hrs” column of Table 4. “N/A” stands for “not assayed” and “N/C” stands for “not calculated”.

IC50 [1] | IC50 [2] | SMILES | mTORC1 selective @ 90 min [3]
1 to 10 nM | ≥ 1000 nM | COCCO[C@@H]1CC[C@@H](C[C@@H](C)[C@@H]2CC(=O)[C@H](C)/C=C(\C)[C@@H](O)[C@@H](OC)C(=O)[C@H](C)C[C@H](C)/C=C/C=C/C=C(\C)C(OC[C@H]3COCCO3)C[C@@H]3CC[C@@H](C)[C@@](O)(O3)C(=O)C(=O)N3CCCC[C@H]3C(=O)O2)C[C@H]1OC (stereo partly drawn) [I-79, (1R,9S,12S,15R,16E,18R,19R,21R,23S,24E,26E,28E,32S,35R)-30-[[(2R)-1,4-dioxan-2-yl]methoxy]-1,18-dihydroxy-19-methoxy-12-[(1R)-2-[(1S,3R,4R)-3-methoxy-4-(2-methoxyethoxy)cyclohexyl]-1-methyl-ethyl]-15,17,21,23,29,35-hexamethyl-11,36-dioxa-4-azatricyclo[30.3.1.0^4,9]hexatriaconta-16,24,26,28-tetraene-2,3,10,14,20-pentone] | Yes
10 to 100 nM | ≥ 1000 nM | CO[C@@H]1/C(C)=C/[C@@H](C)C(=O)C[C@@H]([C@H](C)C[C@@H]2CC[C@@H](OCCO)[C@H](OC)C2)OC(=O)[C@@H]2CCCCN2C(=O)C(=O)[C@]2(O)O[C@@H](CC[C@H]2C)CC(OCCOCCOC2COC2)/C(C)=C/C=C/C=C/[C@@H](C)C[C@@H](C)C(=O)[C@@H]1OC (stereo partly drawn) [I-80, (1R,9S,12S,15R,16E,18R,19R,21R,23S,24E,26E,28E,32S,35R)-1-hydroxy-12-[(1R)-2-[(1S,3R,4R)-4-(2-hydroxyethoxy)-3-methoxy-cyclohexyl]-1-methyl-ethyl]-18,19-dimethoxy-15,17,21,23,29,35-hexamethyl-30-[2-[2-(oxetan-3-yloxy)ethoxy]ethoxy]-11,36-dioxa-4-azatricyclo[30.3.1.0^4,9]hexatriaconta-16,24,26,28-tetraene-2,3,10,14,20-pentone] | Yes
100 to 1000 nM | ≥ 1000 nM | CO[C@@H]1/C(C)=C/[C@@H](C)C(=O)C[C@@H]([C@H](C)C[C@@H]2CC[C@@H](OCCO)[C@H](OC)C2)OC(=O)[C@@H]2CCCCN2C(=O)C(=O)[C@]2(O)O[C@@H](CC[C@H]2C)CC(OCCOCCN)/C(C)=C/C=C/C=C/[C@@H](C)C[C@@H](C)C(=O)[C@@H]1OC (stereo partly drawn) [I-23, (22E,24E,26E,27E,35R,36S,37R,38R,40S,42S,45S,46R,47R,56R)-44-[2-(2-aminoethoxy)ethoxy]-56-hydroxy-45-[(1R)-2-[(1S,3R,4R)-4-(2-hydroxyethoxy)-3-methoxy-cyclohexyl]-1-methyl-ethyl]-46,47-dimethoxy-35,36,37,38,48,49-hexamethyl-66,67-dioxa-58-azatricyclohexatriaconta-22,24,26(48),27(49)-tetraene-50,51,52,53,54-pentone] | Yes
1 to 10 nM | ≥ 1000 nM | CO[C@@H]1C[C@H](C[C@@H](C)[C@@H]2CC(=O)[C@H](C)/C=C(\C)[C@@H](O)[C@@H](OC)C(=O)[C@H](C)C[C@H](C)/C=C/C=C/C=C(\C)C(OCCOC3COC3)C[C@@H]3CC[C@@H](C)[C@@](O)(O3)C(=O)C(=O)N3CCCC[C@H]3C(=O)O2)CC[C@H]1O (stereo partly drawn) [I-88, (23E,25E,27E,28E,32R,33S,34R,35R,37S,39S,41R,42S,44R,45R,54R)-44,54-dihydroxy-42-[(1R)-2-[(1S,3R,4R)-4-hydroxy-3-methoxy-cyclohexyl]-1-methyl-ethyl]-45-methoxy-32,33,34,35,46,47-hexamethyl-41-[2-(oxetan-3-yloxy)ethoxy]-65,66-dioxa-55-azatricyclohexatriaconta-23,25,27(46),28(47)-tetraene-48,49,50,51,52-pentone] | Yes

— patent US20220267352A1, “RAPAMYCIN ANALOGS AND USES THEREOF” (Anakuria Therapeutics, Inc., priority 2021, published 2022)
